These results are taken from patent US4393003A, “β-Lactamase inhibitors” (Hoffmann-La Roche Inc., priority 1981, dated 1983).

Like-named read-outs stand apart in the source and are kept apart here. A value given as a limit tells only on which side of the number the result lay.

The target in assay [1] is T1, type Ia cephalosporinase from Enterobacter cloacae (Enterobacter cloacae, UniProt P05364).
T1 construct: purchased Miles Laboratories
Kind of assay: Cell-free enzyme assay, inhibition of nitrocefin hydrolysis. It is filed as biochemical. On the procedure:
(§1) The test compound is preincubated with enzyme for 20 min. at 30° C. and pH 7. Chromogenic cephalosporin substrate, nitrocefin, is added and its initial rate of hydrolysis is recorded spectrophotometrically. Three enzyme preparations were employed:
(c) the type Ia cephalosporinase from Enterobacter cloacae purchased from Miles Laboratories.
(§2) Included for comparison purposes were the antibiotics cloxacillin and dicloxacillin. I50 (μM) is calculated as the concentration necessary to inhibit the rate of nitrocefin hydrolysis by 50%.

The target in assay [2] is T2, inducible penicillinase from Staphylococcus aureus 1059B (Staphylococcus aureus, UniProt P00807).
T2 construct: the inducible penicillinase from Staphylococcus aureus 1059B; endogenous in cells; host or cells: Staphylococcus aureus 1059B
Described as above. It is filed as biochemical. The procedure:
as §1
(a) the inducible penicillinase from Staphylococcus aureus 1059B,
as §2

Assay [3] concerns the target T3, constitutive broad-spectrum TEM type beta-lactamase mediated by the resistance transfer factor R1 in Escherichia coli 1263B (Escherichia coli, UniProt P62593).
T3 construct: mediated by the resistance transfer factor R1 in Escherichia coli 1263B; endogenous in cells; host or cells: Escherichia coli 1263B carrying resistance transfer factor R1
Described as above. The class given is biochemical. The settings on record: preincubated with enzyme 20 min, 30° C., pH 7; nitrocefin substrate; read-out: I50, Escherichia coli R1. On the procedure:
as §1
(b) the constitutive broad-spectrum TEM type beta-lactamase mediated by the resistance transfer factor R1 in Escherichia coli 1263B, and
as §2

A further assay deals with E. Coli 7289. Kind of assay: In vitro MIC by agar dilution, alone and mecillinam potentiation. It is filed as cell-based. The settings on record: single agent, Mueller-Hinton agar, overnight 37° C. On the procedure:
(§3) The efficacy of putative β-lactamase inhibitors is assessed by determining the effect of the test compounds on the minimal inhibitory concentrations (MICs) of β-lactamase-sensitive antibiotics against bacterial strains known to produce β-lactamases.
(§4) The antibacterial activity of the β-lactamase inhibitor against the test strains is determined by a standard agar dilution method. Serial two-fold dilutions of the β-lactamase inhibitor are prepared in water to give concentrations 10 times the final desired concentrations. The aqueous dilutions are then further diluted 1:10 in Mueller-Hinton (MH) agar. These agar mixtures are poured into petri plates and allowed to harden. Each plate, including a drug-free control plate, is inoculated by means of a Steers replicator with 0.05 mL of 10^-4 dilutions of the test organisms. The 10^'4 dilutions of the organisms are prepared in MH broth from overnight TS broth cultures. The plates are examined for growth after overnight incubation at 37° C. The lowest drug concentration at which three or fewer colonies are observed is considered to be the MIC.
(§5) The β-lactamase inhibitor is then tested for potentiation of the antibiotic mecillinam. Aqueous solutions are prepared containing serial two-fold dilutions of mecillinam in the presence of the β-lactamase inhibitor at a constant concentration 2-4 fold less than its MIC for the most sensitive of the test organisms. The same procedure as above is then followed. Controls include a drug-free plate and a plate containing the β-lactamase inhibitor at the concentration used in the test. The MIC of mecillinam as a single agent is also determined at the same time.

Another assay relates to E. Coli ST 323. Described as above. It is filed as cell-based. The note with it: single agent, Mueller-Hinton agar, overnight 37° C. The procedure:
as §3, §4, §5

A further assay has as its system E. Cloacae P99. The description is as above. The class given is cell-based. The procedure: as §3, §4, §5
The next assay concerns E. Coli K12R1. The description is as above. It is filed as cell-based. The settings on record: single agent, Mueller-Hinton agar, overnight 37° C. On the procedure:
as §3, §4, §5

A further assay concerns S. Marcescens S5. Described as above. The class given is cell-based. The note with it: single agent, Mueller-Hinton agar, overnight 37° C. On the procedure: as §3, §4, §5
The subject of a further assay is P. Aeruginosa 5700. Described as above. It is filed as cell-based. The procedure:
as §3, §4, §5

Setting [4] is: preincubated with enzyme 20 min, 30° C., pH 7, nitrocefin substrate, read-out: I50, Enterobacter cloacae.
Setting [5] is: preincubated with enzyme 20 min, 30° C., pH 7, nitrocefin substrate, read-out: I50, Staphylococcus aureus.
Where [6] appears, read: Escherichia coli, read-out: MIC.

T1 sequence (P05364 21-381): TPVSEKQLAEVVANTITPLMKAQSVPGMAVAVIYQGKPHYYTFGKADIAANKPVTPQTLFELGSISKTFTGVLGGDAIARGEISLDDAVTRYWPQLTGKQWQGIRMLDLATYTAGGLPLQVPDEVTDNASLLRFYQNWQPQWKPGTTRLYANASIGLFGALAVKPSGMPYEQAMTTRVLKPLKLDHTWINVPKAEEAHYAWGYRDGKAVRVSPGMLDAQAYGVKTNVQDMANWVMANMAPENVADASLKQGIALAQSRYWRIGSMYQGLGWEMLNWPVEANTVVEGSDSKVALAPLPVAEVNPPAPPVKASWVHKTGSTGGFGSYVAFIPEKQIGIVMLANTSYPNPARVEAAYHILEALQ
T2 sequence (P00807 25-281): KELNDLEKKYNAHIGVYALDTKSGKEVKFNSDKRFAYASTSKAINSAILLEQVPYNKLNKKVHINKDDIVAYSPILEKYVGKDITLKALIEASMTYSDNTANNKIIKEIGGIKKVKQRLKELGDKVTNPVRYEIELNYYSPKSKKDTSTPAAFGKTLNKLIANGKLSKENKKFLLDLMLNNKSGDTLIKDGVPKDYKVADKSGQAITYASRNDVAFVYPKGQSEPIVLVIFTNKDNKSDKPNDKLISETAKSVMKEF
T3 sequence (P62593 24-286 limits assumed): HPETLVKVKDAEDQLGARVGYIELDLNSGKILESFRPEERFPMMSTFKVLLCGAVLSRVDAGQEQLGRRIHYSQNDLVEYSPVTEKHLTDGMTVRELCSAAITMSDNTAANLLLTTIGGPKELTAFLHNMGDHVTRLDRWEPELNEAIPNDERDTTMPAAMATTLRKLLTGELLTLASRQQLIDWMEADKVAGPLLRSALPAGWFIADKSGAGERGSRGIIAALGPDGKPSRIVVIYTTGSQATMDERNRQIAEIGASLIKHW

`Cc1onc(-c2ccccc2Cl)c1C(=O)N[C@@H]1C(=O)N2[C@@H]1SC(C)(C)[C@@H]2C(=O)O` [Cloxacillin]: the IC50 stood at 0.0015 µM in assay [1] (setting [4]), 365 µM in assay [2] (setting [5]) and 68 µM in assay [3].
For the compound `C[C@]12C[C@@]1(C(=O)O)N1C(=O)C[C@H]1S2(=O)=O` [compound of formula I, [2S-(2α,4α,6α)]-4-Methyl-8-oxo-5-thia-1-azatricyclo[4.2.0.0^2,4]octane-2-carboxylic acid 5,5-dioxide], the IC50 in [1] stood at 69 µM; in assay [2], 6.7 µM; in assay [3], 1.1 µM. Also, the MIC entry in the assay on E. Coli 7289 is listed as “Inert”; in the assay on E. Coli ST 323, “Inert”; with E. Cloacae P99 (E. Cloacae P99, single agent, Mueller-Hinton agar, overnight 37° C.) it was “Inert”; in the assay with E. Coli K12R1, “Inert”; with S. Marcescens S5 it was “Inert”; with P. Aeruginosa 5700 (P. Aeruginosa 5700, single agent, Mueller-Hinton agar, overnight 37° C.), “Inert”.
On to `CC1(C)S[C@@H]2[C@H](/N=C/N3CCCCCC3)C(=O)N2[C@H]1C(=O)O` [Mecillinam, mecillinam], for which the MIC in the assay with E. Coli 7289 (setting [6]) is 32 µg/mL; in the assay with E. Coli ST 323 (setting [6]), 4 µg/mL; in the assay on E. Cloacae P99 (Enterobacter cloacae) it was 0.03 µg/mL; in the assay on E. Coli K12R1 (setting [6]), 1 µg/mL; with S. Marcescens S5 (Serratia marcescens, read-out: MIC), 4 µg/mL; with P. Aeruginosa 5700 (Pseudomonas aeruginosa), above 128 µg/mL.
Take `Cc1onc(-c2c(Cl)cccc2Cl)c1C(=O)N[C@@H]1C(=O)N2[C@@H]1SC(C)(C)[C@@H]2C(=O)O` [Dicloxacillin]: the IC50 amounted to 0.0014 µM in assay [1] (setting [4]), 96 µM in assay [2] (setting [5]) and 32 µM in [3].
